In brackets after ≈: the same amount, converted by molar mass. Several values for one entry are separate records, joined by “and”; a condition that tells them apart may be missing. Identical values can stand only once. Like-named read-outs stand apart in the source and are kept apart here.
Tests used:
[1] = molecular target: purified C. albicans Cho1 (phosphatidylserine synthase) (Candida albicans, UniProt A0A1D8PF32); test: malachite-green-based nucleotidase-coupled assay, dose-response; assay type: biochemical; details: top 200 µM, 3 h at 30°C, three replicates
Experimental: A malachite-green-based nucleotidase-coupled assay was used to measure the PS synthesis activity of Cho1 (Fig. 1B). Cho1 catalyzes the production of PS and cytidylmonophosphate (CMP) from CDP-DAG and serine, where CMP can then be recognized and cleaved by the nucleotidase CD73 to release inorganic phosphate, which is subsequently detected by malachite green. To test whether this malachite-green-based assay can reflect Cho1 activity, a time-course test was performed with a fixed amount of purified Cho1 in the presence of substrates (Fig. 1C).
The bioactives library was purchased from Selleck in 2014, and the remaining libraries (anti-infectives and mechanism of action libraries) were assembled from compounds available at the Chemical Biology and Therapeutics Department at St. Jude Children’s Research Hospital. The anti-infectives library contains a curated list of antimicrobials and antiviral agents ([95]). The bioactive library has a compilation of compounds acquired from commercial sources and external academic collaborators. The mechanism of action set is a dynamic set of well-annotated compounds with comprehensive coverage of human targets and mechanisms of action ([96]). All compounds were dissolved in DMSO and 100 nL was transferred to a 384-well clear bottom plate (ThermoFisher Scientific, cat# 265203) using a Beckman Echo 650 acoustic liquid handler. Equal volumes of either the selective CD73 nucleotidase inhibitor AB680 at a final concentration of 1 µM (MedChemExpress, cat# HY-125286) or DMSO were used as positive and negative controls, respectively. A total of 30–35 ng of purified Cho1 protein was used in each reaction in 50 mM Tris-HCl (pH 8.0) for primary screening, combined with 100 µM CDP-DAG (Avanti, cat# 870510), 5 mM serine, 0.4 ng CD73 nucleotidase (R&D systems, cat# EA002), 1 mM MnCl2, 0.1% APX-100, and 0.1% digitonin, in a total volume of 10 µL. Counter screen reactions were set up by replacing only the purified Cho1 with 150 µM CMP, with all other components remaining constant. The 10 µL primary and counter screening reactions were delivered to each well of 384-well assay plates containing pre-aliquoted compounds from the library using a Multidrop Combi (ThermoFisher Scientific). […] After media transfer, assay plates were incubated for 3 h at 30°C. Plates were then removed and 32 µL of malachite green mixture [6 µL malachite A (2%, wt/vol, ammonium molybdate and 20%, vol/vol, sulfuric acid in H2O) +20 µL H2O + 6 µL malachite B (0.1%, wt/vol, malachite green oxalate and 0.5%, wt/vol, polyvinyl alcohol in H2O)] were added to each well via a MultiDrop Combi and incubated for an additional 10 min at room temperature. After incubation, plates were briefly centrifuged at 500 × g and absorbance at 620 nm was then measured using a Cytation7 plate reader (Biotek, Winooski, VT). Raw absorbance values of the compounds were normalized to DMSO (0% inhibition) and AB680 (100% inhibition) from both primary and counter screens, and % Δinhibition was calculated by […]. Z-factors for each plate were calculated using the in-house program RISE (Robust Investigation of Screening Experiments). All non-PAINs compounds that had >80% Δinhibition progressed to dose-response testing (82 total compounds). Dose-response experiments were performed in triplicate as described above using a 10-point, threefold serial dilution with the top concentration for each compound tested being 200 µM (range: 0.010161–200 μM). The absorbance at 620 nm was then measured using a PHERAstar FS multilabel reader (BMG, Cary, NC). Raw values were once again normalized to DMSO (0% inhibition) and AB680 (100% inhibition) and Z-factors for each plate were calculated using RISE. […]

[2] = tested on: wild-type C. albicans strain SC5314; test: CLSI MIC broth microdilution; assay type: cell-based, Candida albicans; details: for MIC: Candida albicans; for effect on cell growth in all three media: even at 250 µM
Experimental: We then tested the effects of the six compounds on live cells by determining the minimal inhibitory concentrations (MICs) of these compounds. Following the standard Clinical & Lab Standards Institute (CLSI) MIC broth microdilution methods, wild-type C. albicans strain SC5314 was grown with avasimibe, CBR-5884, tideglusib, ebselen, ML-345, and LOC14 in RPMI MOPS medium (pH 7.0) or alternatively in minimal medium or minimal medium with HEPES (pH 7.0) at 37°C for 48 h, along with a cho1ΔΔ strain as a control (Fig. 3A through C). The concentration of the compounds was varied from 0.5 to 250 µM. […] Ebselen, LOC14, and CBR-5884, on the contrary, stopped cell growth at different concentrations in all three media, with MICs ranging between 7.8 and 31.3 μM (Fig. 3A through D). […] Specific MIC values are summarized in Fig. 3D for all the compounds.
Minimum inhibitory concentration (MIC) was determined following Clinical & Lab Standards Institute (CLSI) MIC broth microdilution protocol (Licensed to Todd Reynolds, license # Ord-1138682) ([98], [99]). Briefly, stock solutions of different compounds (purchased from MedChemExpress) were prepared at a concentration of 10 mM in DMSO and subsequently diluted as required in the same solvent. Wild-type C. albicans strain SC5314, as well as four additional wild-type strains—GDH2346, 3153A, TFPY412, and TFPY2307, were cultured overnight in YPD medium at 30°C, washed with water three times, and then diluted to a concentration of 2 × 10^3 cells/mL (OD600 = 0.00008) in one of the three media [minimal medium, minimal medium buffered with 50 mM HEPES (pH 7.0) and RPMI MOPS (pH 7.0)]. The cho1ΔΔ strain was also included as a control. A volume of 100 µL from each cell suspension was dispensed into the wells of a flat-bottom 96-well plate. An additional 100 µL of corresponding medium, containing twice the final desired concentration of each drug, was added to each well, leading to a final initial inoculum of 1 × 10^3 cells/mL (OD600 = 0.00004). The final DMSO concentration was maintained at 2.5% across all treatments. Following preparation, the plates were incubated at 37°C for 48 h and photos were taken with a Bio-Rad Gel Doc XR + Imaging System.

[3] = precipitation in MIC media; assay type: physicochemical
[4] = molecular target: the molecule itself; test: native gel or EMSA; blue native PAGE of purified tag-free Cho1 in digitonin, stained with Coomassie Blue R-250; MW estimated with the band analysis tool of Quantity One
[5] = 10-point dose-response, read-out: Best-fit IC50, inhibition of Cho1
[6] = SC5314, RPMI MOPS pH 7.0, 37°C, 48 h, read-out: Minimal Inhibitory Concentration (MIC): RPMI, MOPS 7.0
[7] = SC5314, minimal medium with 50 mM HEPES pH 7.0, 37°C, 48 h, read-out: Minimal Inhibitory Concentration (MIC): MM, HEPES 7.0
[8] = SC5314, minimal medium, 37°C, 48 h, read-out: Minimal Inhibitory Concentration (MIC): MM

Molecule | IC50 [1, 5] | MIC [2, 6] [µM] | MIC [2, 7] [µM] | MIC [2, 8] [µM] | effect on cell growth in all three media [2] | other results
O=c1c2cc(F)ccc2sn1-c1cc(S(=O)(=O)N2CCOCC2)ccc1N1CCOCC1 [ML-345] | ≤ 20 µM and ~15.5 µM | – | – | – | – | MIC ([2]; SC5314, 48 h, pH 7, read-out: Minimal Inhibitory Concentration (MIC): MM, HEPES 7.0): > 500 µM; MIC ([2]; SC5314, 48 h, pH 7, read-out: Minimal Inhibitory Concentration (MIC): RPMI, MOPS 7.0): 31.3 µM (≈ 15 µg/mL); MIC ([2]; SC5314, 48 h, read-out: Minimal Inhibitory Concentration (MIC): MM): > 500 µM; effect on cells grown in the minimal media ([2]; minimal media): had no effect
O=c1sn(-c2cccc3ccccc23)c(=O)n1Cc1ccccc1 [Tideglusib] | – | > 500 | > 500 | > 500 | did not affect cell growth | solubility in MIC media ([3]; concentrations 0.5 to 250 µM): precipitated at high concentrations; IC50 ([1]; Best-fit IC50, inhibition of Cho1, 10-point dose-response): ≤ 20 µM and ~8.53 µM
c1ccc(Nc2nc3c(s2)CCCc2[nH]ncc2-3)nc1 [TC-N 22A] | ~65.3 µM | – | – | – | – | –
CC(C)c1cc(C(C)C)c(CC(=O)NS(=O)(=O)Oc2c(C(C)C)cccc2C(C)C)c(C(C)C)c1 [Avasimibe] | ~23.4 µM | > 500 | > 500 | > 500 | did not affect cell growth | solubility in MIC media [3]: precipitated at high concentrations
Candida albicans phosphatidylserine synthase Cho1 (enzyme, UniProt A0A1D8PF32 1-273, looked up, Cho1, phosphatidylserine synthase (EC 2.7.8.8) of Candida albicans, CHO1 gene expressed from the TEF1 promoter; A TEV site (ENLYFQG) lies between Cho1 and the HAx3-HISx8 tag; The forward cloning primer begins at the ATG of CHO1; also called PS synthase; CDP-diacylglycerol-serine O-phosphatidyltransferase; not shown: HAx3, C-terminal, cleaved; His8, C-terminal, cleaved) MSDSSATGFSKHQESAIVSDSEGDAIDSELHMSANPPLLRRSSSLFSLSSKDDLPKPDSKEYLKFIDDNRHFSMIRNLHMADFITLLNGFSGFYSIISCLRYTLTGQTHYVQRAHFFILLGLFFDFFDGRVARLRNKSSLMGQELDSLADLVSFGVSPATIAFAIGFRTTVDVLFLAFWVLCGLTRLARFNISVNNIPKDKHGKSQYFEGLPIPTNLFWVGFMALLVYKDWIHDNLPFGIVFQDTSFEFHLVTIGFVLQGCAEISKSLKIPKP | – | – | – | – | – | stoichiometry N [4]: 6

Source: PMC11077991, “The small molecule CBR-5884 inhibits the Candida albicans phosphatidylserine synthase” (mBio, 2024)
